Values joined by “and” are separate entries in the source; they are usually repeats but may differ in a detail not shown here. Identical values can stand only once.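 Tested at 5 concentrations; 48 h exposure; 96-well plates; endpoints linearly interpolated, else capped at highest concentration. GI50 = concentration required for 50% inhibition of growth. TGI is the concentration that stops growth completely.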
What was measured:
Assay in all cases: NCI-60 cell line screen, 48 h
[1] = tested on: UACC-62 melanoma
[2] = tested on: HCC-2998 colon
[3] = tested on: MDA-MB-435
[4] = tested on: HCT-15 colon
[5] = tested on: HCT-116 colon
[6] = tested on: SW-620 colon
[7] = tested on: HOP-62 NSCLC
[8] = tested on: U251 CNS
[9] = tested on: LOX IMVI melanoma
[10] = tested on: DLD-1 colon
[11] = tested on: SNB-78 CNS

SMILES | TGI [1] [µM] | TGI [2] | TGI [3] [µM] | TGI [4] [µM] | TGI [5] | TGI [6] [µM] | TGI [7] [µM] | TGI [8] [µM] | TGI [9] [µM] | TGI [10] [µM] | TGI [11] [µM] | GI50 [7] [µM] | GI50 [9] [µM]
COC(=O)c1ccc(CCc2cc(O)ccc2O)cc1 | 33.9 | 59.6 µM | 21.7 | 27.5 | 24 µM | 29.7 | 48.6 | 33.2 | 22.7 | – | – | – | –
O=C(c1ccccc1)c1c(C(F)(F)F)n([O-])c2cc(Cl)c(Cl)cc2[n+]1=O | 8.28 | 4.11 µM | 3.08 | 2.76 | 0.989 µM | 6.72 | 0.909 | 2.71 | 2.46 | – | – | – | –
O=C1c2ccccc2C(=O)c2c1ccc1c2N=C(c2ccc(F)cc2)CC(c2ccc(Cl)c(Cl)c2)N1 (stereo not given) | 25.7 | 27.8 µM | – | 19.8 | 23.7 µM | 19 | 58.2 | 24.7 | 18.3 | 31.8 | 41.5 | – | –
CC(=O)OCc1cc(=O)n(C)c2c3c4c(cc12)c(C)cc(=O)n4CO3 | 3.58 | 4.61 µM | – | 37.8 | 20 µM | 15.6 | 4.3 | 26.6 | 8.6 | 26.3 | 14.2 | – | –
Cc1cc(=O)n2nc(CSc3nnc(N)s3)sc2n1 | > 100 | > 100 µM | > 100 | > 100 | > 100 µM | > 100 | > 100 | > 100 | > 100 | – | – | – | –
NCCNCCCCCCNC(=O)c1cccc2cc3ccccc3nc12 | 4.64 | 6.79 µM | 11.9 | 25.5 | 6.33 µM | 4.78 | 4.68 | 4.15 | 2.96 | – | – | – | –
S=C1C(=Nc2ccccc2)N(c2ccccc2)/C(=N\c2ccccn2)N1c1ccccc1 | 17.1 | 27.1 µM | 28.5 | 27.7 | 30.4 µM | 27.9 | 30.1 | 29.5 | 21.9 | – | – | – | –
CCOC(=O)C1=C(C)C(C(=O)OC)/C(=C/c2cccc3cccnc23)C1=O (stereo not given) | > 10 | > 10 µM | > 10 | > 10 | > 10 µM | > 10 | > 10 | > 10 | > 10 | – | – | – | –
Cc1ccc(C)c(COCCOCn2cc(Br)c(N)nc2=O)c1 | > 100 | > 100 µM | > 100 | > 100 | > 100 µM | > 100 | > 100 | > 100 | > 100 | – | – | – | –
Cc1cc(NS(=O)(=O)c2ccc(NC(=O)c3cccc4c(NNc5ccc(S(=O)(=O)N=C(N)N)cc5)c5ccccc5nc34)cc2)no1 | > 100 | > 100 µM | > 100 | > 100 | > 100 µM | > 100 | > 100 | 64.7 | > 100 | – | – | – | –
N#CC(C#N)=Cc1c(O)ccc2ccccc12 | 31.1 | 33.1 µM | 30 | 37.5 | 30.9 µM | 34.5 | 50.2 | 32.5 | 26.6 | – | – | – | –
O=c1[nH]c2cc3cccnc3c(Cl)c2nc1C(F)(F)F | > 100 | > 100 µM | > 100 | > 100 | > 100 µM | > 100 | > 100 | > 100 | > 100 | – | – | – | –
CN(C)CCOC(=O)c1ccc(N)cc1 | > 100 | 31.4 µM | > 100 | > 100 | > 100 µM | > 100 | > 100 | > 100 | > 100 | – | – | – | –
CN(C)CCCNc1c2ccccc2nc2cccc([N+](=O)[O-])c12 | – | 0.00194 µM and 0.0131 µM | 0.00242 | 0.00142 | 0.0132 µM and 0.0316 µM | – | – | 0.0143 | – | – | 0.0601 | 0.0222 | 0.019
COc1cc(/C=C2\N=C(c3ccccc3)N(/N=C3\C(=O)Nc4ccccc43)C2=O)cc(OC)c1OC | > 100 | > 100 µM | > 100 | > 100 | > 100 µM | > 100 | > 100 | > 100 | > 100 | – | – | – | –
COC(=O)c1nc(-c2ccc3c(n2)C(=O)C(N)=C(OC)C3=O)c(N)c(-c2ccc(OC)c(OC)c2O)c1C | 1.27 | 0.221 µM | – | 2.68 | 2.14 µM | 6.88 | 0.487 | 2.37 | – | 3.42 | 8.38 | – | –
